Consider one compound from US6022873A, “Metalloproteinase inhibitors” (British Biotech Pharmaceuticals Limited, priority 1996, dated 2000).

The target in the experiment is T1, human fibroblast collagenase (Homo sapiens, UniProt P03956).
T1 sequence (P03956 100-469): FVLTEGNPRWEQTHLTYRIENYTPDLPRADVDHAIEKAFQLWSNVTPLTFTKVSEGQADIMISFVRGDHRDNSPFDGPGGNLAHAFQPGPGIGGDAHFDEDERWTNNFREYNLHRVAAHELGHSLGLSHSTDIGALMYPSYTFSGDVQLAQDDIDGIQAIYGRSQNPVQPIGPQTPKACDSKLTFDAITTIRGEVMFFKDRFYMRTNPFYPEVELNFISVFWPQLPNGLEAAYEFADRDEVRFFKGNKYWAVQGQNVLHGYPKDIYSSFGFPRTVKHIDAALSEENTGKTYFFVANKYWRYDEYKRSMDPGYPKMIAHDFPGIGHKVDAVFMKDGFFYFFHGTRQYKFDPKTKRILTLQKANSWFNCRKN
Description: Human fibroblast collagenase inhibition assay (14C-acetylated collagen hydrolysis, Cawston and Barrett). The format is biochemical. The following applies: 37° C., 16 hours, acetylated 14C collagen, 25 mM Hepes pH 7.5; read-out: inhibitor concentration effecting 50% inhibition of the collagenase activity (IC50). On the procedure:
The potency of compounds of the present invention as inhibitors of human fibroblast collagenase may be determined by the procedure of Cawston and Barrett, (Anal. Biochem., 99, 340-345, 1979), hereby incorporated by reference, whereby a 1 mM solution of the compound being tested, or a dilution thereof, was incubated at 37° C. for 16 hours with collagen and human fibroblast collagenase (buffered with 25 mM Hepes, pH 7.5 containing 5 mM CaCl2, 0.05% Brij 35 and 0.02% NaN3). The collagen was acetylated ^14 C collagen prepared by the method of Cawston and Murphy, (Methods in Enzymology, 80, 711, 1981), hereby incorporated by reference. The samples were centrifuged to sediment undigested collagen, and an aliquot of the radioactive supernatant removed for assay on a scintillation counter as a measure of hydrolysis.

On to `COc1ccc(S(=O)(=O)NCC[C@H](C(=O)NO)[C@@H](CC(C)C)C(=O)N2CCCCC2)cc1` [Example 2, 2S-[(4-Methoxybenzenesulfonyl-amino)-ethyl]-5-methyl-3R-(piperidine-1-carbonyl)-hexanoic acid hydroxyamide], for which the IC50 is approximately 50 nM.
